Reference: patent US10336710B2, “Benzimidazole derivatives, preparation method therefor, and applications thereof” (BEIJING PHARMACEUTICAL GROUP CO., LTD., priority 2015, dated 2019)

Key:
human URAT1 = human URAT1 (Homo sapiens (Human), UniProt Q96S37); assay: 14C-uric acid uptake inhibition in URAT1 high-expression 293/hURAT1 cells; type: cell-based; settings: 50 μM 14C-uric acid, 5 minutes at 37° C., read-out: URAT1 IC50 activity classification
Protocol: The transfected cells were assayed for ability to uptake uric acid labelled with radioisotope. The test compounds were then evaluated for their activity by determining of their ability to block uric acid uptake by the transfected cells.
293/h URAT1 cells were plated at a density of 40000 cells/well in poly D-lysine-coated 96-well plates (BD, 356461) and incubated overnight. The medium was removed and a pre-warmed reaction buffer was added (125 mM sodium gluconate, 4.8 mM potassium gluconate, 1.3 mM calcium gluconate, 1.2 mM potassium dihydrogen phosphate, 1.2 mM magnesium sulfate, 5.6 mM glucose, 25 mM HEPES, pH 7.4) before incubating at 37° C. for 10 minutes. The buffer was removed and another reaction buffer containing 50 μM ^14C-uric acid (American Radiolabeled Chemicals, ARC0513) and the test compounds or solvent control was added before incubating at 37° C. for 5 minutes. The buffer was removed, and the plates were washed 3 times with the buffer. Cells were lysed by adding 100 mM NaOH for 20 minutes. Cell lysates were transferred to Isoplate-96 well plates (PerkinElmer, 6005040), mixed with liquid scintillators and were counted in a MicroBeta^2 (PerkinElmer) counter.
The test compounds were all dissolved in DMSO, and DMSO of the same concentration without the test compounds was used as a solvent control. […] The IC50 of each compound was calculated using the percentage of inhibition at different concentrations.

hyperuricemia rat models = assay: Therapeutic effect on potassium oxonate-induced hyperuricemia rat models (blood uric acid); type: in vivo, SD rats; settings: for Blood uric acid concentration before drug administration: baseline, rat serum; for Blood uric acid concentration before drug administration / Blood uric acid concentration 7 days after drug administration: mean ± SD; for Blood uric acid concentration 7 days after drug administration: potassium oxonate 250 mg/kg/d i.p.; for Blood uric acid increase: 7 days vs before drug administration; for Effect on increment of blood uric acid levels compared with model control group (in words): 80 mg/kg/day and 40 mg/kg/day, potassium oxonate rat model
Protocol: Experimental animals: SD rats (SPF level), Laboratory Animal Center, Chinese Academy of Military Medical Sciences.
Rats weighing 200±20 g were fasted for 12 hours after a 1-week adaptive feeding period and were intraperitoneally injected with potassium oxonate (250 mg/kg/d) once daily for 7 consecutive days for modeling. The rats were closely observed after injection. […]
Blood samples were collected from the retro-orbital venous plexus before the preparation of the rat models and after administering the test compounds for 7 days. Serum was separated from the blood samples. Urine was collected using a metabolic cage for 24 hours and the supernatant was collected after centrifuge. Blood uric acid levels were measured using an automatic biochemical analyzer. The average increment in blood uric acid concentration was calculated for each group of animals.
SPSS 13.0 statistical software package was used to analyze the data. The data in each group were expressed as mean plus or minus standard deviation (x±s). The data were compared using a comparative t-test between groups, where p<0.05 was considered as statistically significant.

[1] = 40 mg/kg/d intragastric once daily for 7 days
[2] = 80 mg/kg/d intragastric once daily for 7 days

Sequence of human URAT1 (Q96S37 whole entry): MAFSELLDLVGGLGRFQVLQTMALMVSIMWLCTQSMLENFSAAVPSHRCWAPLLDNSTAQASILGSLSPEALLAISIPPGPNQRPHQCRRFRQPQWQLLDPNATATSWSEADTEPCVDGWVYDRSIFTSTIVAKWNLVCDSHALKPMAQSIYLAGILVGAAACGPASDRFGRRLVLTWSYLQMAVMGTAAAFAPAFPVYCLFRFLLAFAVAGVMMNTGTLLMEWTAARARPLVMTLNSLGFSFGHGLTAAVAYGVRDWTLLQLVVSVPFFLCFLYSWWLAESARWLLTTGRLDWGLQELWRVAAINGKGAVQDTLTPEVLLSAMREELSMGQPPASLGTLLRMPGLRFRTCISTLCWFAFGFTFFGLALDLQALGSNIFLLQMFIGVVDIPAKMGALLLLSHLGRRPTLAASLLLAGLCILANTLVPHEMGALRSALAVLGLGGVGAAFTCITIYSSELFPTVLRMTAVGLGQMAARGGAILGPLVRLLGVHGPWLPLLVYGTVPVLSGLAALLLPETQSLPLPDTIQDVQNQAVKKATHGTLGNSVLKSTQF

IC50 (human URAT1) | Structure (SMILES) | Blood uric acid concentration before drug administration (hyperuricemia rat models; 40 mg/kg/d group) | Blood uric acid concentration 7 days after drug administration (hyperuricemia rat models; [1]) | Blood uric acid increase (hyperuricemia rat models; 40 mg/kg/d) | Blood uric acid concentration before drug administration (hyperuricemia rat models; 80 mg/kg/d group) | Blood uric acid concentration 7 days after drug administration (hyperuricemia rat models; [2]) | Blood uric acid increase (hyperuricemia rat models; 80 mg/kg/d) | Effect on increment of blood uric acid levels compared with model control group (in words) (hyperuricemia rat models)
1 to 15 µM | CC(C)(Sc1nc2ccccc2n1-c1ccc(C#N)c2ccccc12)C(=O)O [Example I2, 2-methyl-2-[[1-(4-cyanonaphth-1-yl)-1H-benzo[d]imidazol-2-yl]thio]propanoic acid] | 156.38 ± 12.62 µmol/L | 172.86 ± 9.37 µmol/L | 10.54% | 150.86 ± 20.46 µmol/L | 161.81 ± 8.38 µmol/L | 7.26% | could significantly reduce the increment of blood uric acid levels
1 to 15 µM | CC(C)(Sc1nc2cc(Br)ccc2n1-c1ccc(C#N)c2ccccc12)C(=O)O [Example I3, 2-methyl-2-[[5-bromo-1-(4-cyanonaphth-1-yl)-1H-benzo[d]imidazol-2-yl]thio]propanoic acid] | 169.21 ± 14.24 µmol/L | 180.38 ± 14.36 µmol/L | 6.60% | 181.25 ± 24.86 µmol/L | 159.40 ± 13.99 µmol/L | −12.06% | could significantly reduce the increment of blood uric acid levels
– | O=C(O)CSc1nnc(Br)n1-c1ccc(C2CC2)c2ccccc12 [Lesinurad, reference compound] | 156.02 ± 8.69 µmol/L | 172.57 ± 25.43 µmol/L | 10.61% | 161.20 ± 22.07 µmol/L | 166.85 ± 12.76 µmol/L | 3.50% | could reduce the increment of blood uric acid levels
30 to 100 µM | CC(C)(Sc1nc2ccccc2n1-c1ccc([N+](=O)[O-])cc1F)C(=O)O [Example I7, 2-methyl-2-[[1-(4-nitro-2-fluorophenyl)-1H-benzo[d]imidazol-2-yl]thio]propanoic acid] | – | – | – | – | – | – | –
15 to 30 µM | O=C(O)C(Sc1nc2ccccc2n1-c1ccc(C2CC2)c2ccccc12)c1ccc(Cl)cc1 (stereo not drawn) [Example I6, 2-(4-chlorophenyl)-2-[[1-(4-cyclopropylnaphth-1-yl)-1H-benzo[d]imidazol-2-yl]thio]acetic acid] | – | – | – | – | – | – | –
15 to 30 µM | CC(C)(Sc1nc2ccccc2n1-c1ccc(C2CC2)c2ccccc12)C(=O)O [Example I5, 2-methyl-2-[[1-(4-cyclopropylnaphth-1-yl)-1H-benzo[d]imidazol-2-yl]thio]propanoic acid] | – | – | – | – | – | – | –
15 to 30 µM | CC(C)(Sc1nc2ccccc2n1-c1ccc(Br)cc1F)C(=O)O [Example I11, 2-methyl-2-[[1-(4-bromo-2-fluorophenyl)-1H-benzo[d]imidazol-2-yl]thio]propanoic acid] | – | – | – | – | – | – | –
1 to 15 µM | CC(C)(Sc1nc2ccccc2n1-c1ccc(C#N)cc1)C(=O)O [Example I4, 2-methyl-2-[[1-(4-cyanophenyl)-1H-benzo[d]imidazol-2-yl]thio]propanoic acid] | 142.57 ± 6.43 µmol/L | 173.05 ± 17.24 µmol/L | 21.38% | 158.38 ± 13.67 µmol/L | 177.24 ± 5.77 µmol/L | 11.90% | –
15 to 30 µM | CC(C)(Sc1nc2ccccc2n1-c1ccc(Cl)cc1F)C(=O)O [Example I12, 2-methyl-2-[[1-(4-chloro-2-fluorophenyl)-1H-benzo[d]imidazol-2-yl]thio]propanoic acid] | – | – | – | – | – | – | –
15 to 30 µM | CC(C)(Sc1nc2ccccc2n1-c1ccccc1F)C(=O)O [Example I13, 2-methyl-2-[[1-(2-fluorophenyl)-1H-benzo[d]imidazol-2-yl]thio]propanoic acid] | – | – | – | – | – | – | –
30 to 100 µM | CC(C)(Sc1nc2ccccc2n1-c1ccccc1)C(=O)O [Example I8, 2-methyl-2-[(1-phenyl-1H-benzo[d]imidazol-2-yl)thio]propanoic acid] | – | – | – | – | – | – | –
1 to 15 µM | COc1ccc2c(c1)nc(SC(C)(C)C(=O)O)n2-c1ccc(C#N)c2ccccc12 [Example I1, 2-methyl-2-[[5-methoxy-1-(4-cyanonaphth-1-yl)-1H-benzo[d]imidazol-2-yl]thio]propanoic acid] | 169.61 ± 19.57 µmol/L | 175.79 ± 16.54 µmol/L | 3.64% | 175.83 ± 16.39 µmol/L | 175.95 ± 15.43 µmol/L | 0.07% | could significantly reduce the increment of blood uric acid levels
